In ChEMBL document CHEMBL4017488, “Glucuronides as Potential Anionic Substrates of Human Cytochrome P450 2C8 (CYP2C8)” (J Med Chem, 2017):

Tests used:
[1] = In vivo drug metabolism in human assessed as UGT2B7-mediated gemfibrozil-1-O-beta-glucuronide metabolite levels in urine at 450 mg, po after 24 hrs by HPLC analysis; format: ADME, organism-based
[2] = In vivo drug metabolism in human assessed as CYP2C8-mediated gemfibrozil-1-O-beta-glucuronide-2'-benzyl alcohol metabolite levels in urine at 450 mg, po after 24 hrs by HPLC analysis; format: ADME, organism-based
[3] = In vivo drug metabolism in human assessed as CYP2C8-mediated gemfibrozil-1-O-beta-glucuronide-5'-benzyl alcohol metabolite levels in urine at 450 mg, po after 24 hrs by HPLC analysis; format: ADME, organism-based
[4] = tested on: Homo sapiens; assay: In vivo inhibition of CYP2C8 in human assessed as reduction in gemfibrozil-1-O-glucuronide metabolite formation in plasma at 30 mg, po administered as single dose measured after 10 hrs by LC-MS/MS analysis
[5] = tested on: Homo sapiens; assay: In vivo drug metabolism in human assessed as CYP2C9-mediated 4'-hydroxydiclofinac metabolite formation; format: ADME, organism-based
[6] = In vivo drug metabolism in human assessed as UGT2B7-mediated 4'-hydroxydiclofinac acyl glucuronide level in urine; format: ADME, organism-based
[7] = target: T1, CYP2C8 (Homo sapiens, UniProt P10632); assay: (§1) Inhibition of CYP2C8 in human liver microsomes preincubated for 30 mins followed by substrate addition measured after 2 mins; format: ADME; settings: human, liver microsomes
T1 sequence (P10632 whole entry): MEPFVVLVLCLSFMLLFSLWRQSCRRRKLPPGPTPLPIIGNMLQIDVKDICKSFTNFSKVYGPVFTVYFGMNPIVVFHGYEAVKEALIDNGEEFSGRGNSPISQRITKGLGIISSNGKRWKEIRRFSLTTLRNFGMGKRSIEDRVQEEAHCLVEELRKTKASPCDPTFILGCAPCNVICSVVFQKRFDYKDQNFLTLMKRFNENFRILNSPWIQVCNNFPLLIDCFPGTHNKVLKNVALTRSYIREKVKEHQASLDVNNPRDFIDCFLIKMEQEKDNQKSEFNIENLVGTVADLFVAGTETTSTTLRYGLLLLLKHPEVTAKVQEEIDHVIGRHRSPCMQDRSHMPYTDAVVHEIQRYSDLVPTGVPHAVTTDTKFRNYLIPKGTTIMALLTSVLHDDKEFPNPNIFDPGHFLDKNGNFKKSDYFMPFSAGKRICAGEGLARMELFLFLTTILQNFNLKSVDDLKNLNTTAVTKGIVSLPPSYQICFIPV

[8] = target: T2, Cytochrome P450 2C8 (Homo sapiens, UniProt P10632); assay: as §1; format: ADME
T2 sequence (P10632 whole entry): T1 sequence (P10632 whole entry)

[9] = In vivo drug metabolism in human assessed as CYP2C8-mediated glucuronide conjugate formation in urine by LC-MS/MS analysis; format: ADME, organism-based
[10] = tested on: Blood; assay: In vivo drug metabolism in human assessed as UGT-mediated deleobuvir acyl glucuronide metabolite formation in blood at 800 mg,po administered as single dose measured up to 12 hrs; format: ADME, organism-based
[11] = tested on: Blood; assay: In vivo drug metabolism in human assessed as 3-(2-(1-(2-(5-bromopyrimidin-2-yl)-3-cyclopentyl-1-methyl-1H-indole-6-carboxamido)cyclobutyl)-1-methyl-1H-benzo[d]imidazol-6-yl)propanoic acid metabolite formation in blood at 800 mg,po administered as single dose measured up to 12 hrs by radiolabled assay; format: ADME, organism-based
[12] = target: T2, Cytochrome P450 2C8; assay: Inhibition of CYP2C8 in human liver microsomes using paclitaxel as substrate after 5 mins; format: ADME
[13] = target: T2, Cytochrome P450 2C8; assay: Inhibition of CYP2C8 in human liver microsomes using paclitaxel as substrate preincubated for 2 to 40 mins followed by NADPH-generating system addition measured after 2 mins; format: ADME
[14] = target: T1, CYP2C8; assay: (§2) Time dependent inhibition of CYP2C8 in human liver microsomes after 5 mins by LC-MS/MS analysis; format: ADME; settings: human, liver microsomes
[15] = target: T2, Cytochrome P450 2C8; assay: as §2; format: ADME
[16] = target: T2, Cytochrome P450 2C8; assay: Reversible inhibition of CYP2C8 in human liver microsomes after 5 mins by LC-MS/MS analysis; format: ADME
[17] = target: T3, CYP1A2 (Homo sapiens, UniProt P05177); assay: (§3) Inactivation of CYP1A2 in human liver microsomes after 5 mins by LC-MS/MS analysis; format: ADME; settings: human, liver microsomes
T3 sequence (P05177 whole entry): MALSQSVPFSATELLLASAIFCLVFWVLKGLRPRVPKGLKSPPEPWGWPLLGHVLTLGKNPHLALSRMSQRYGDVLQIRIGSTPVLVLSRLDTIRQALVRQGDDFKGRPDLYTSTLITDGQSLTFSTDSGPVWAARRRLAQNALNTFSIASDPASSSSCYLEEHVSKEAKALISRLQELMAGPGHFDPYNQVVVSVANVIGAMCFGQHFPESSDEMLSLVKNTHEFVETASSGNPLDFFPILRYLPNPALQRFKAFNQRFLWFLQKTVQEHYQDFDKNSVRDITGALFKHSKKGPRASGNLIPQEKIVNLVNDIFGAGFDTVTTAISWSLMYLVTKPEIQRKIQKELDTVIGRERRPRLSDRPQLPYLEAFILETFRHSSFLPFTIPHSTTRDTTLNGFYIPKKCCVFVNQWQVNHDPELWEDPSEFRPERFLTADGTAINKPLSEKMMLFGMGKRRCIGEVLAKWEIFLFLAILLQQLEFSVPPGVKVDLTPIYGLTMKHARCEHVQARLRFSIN

[18] = target: T4, Cytochrome P450 1A2 (Homo sapiens, UniProt P05177); assay: as §3; format: ADME
T4 sequence (P05177 whole entry): T3 sequence (P05177 whole entry)

[19] = substrate: C[C@]12CC[C@@H]3c4ccc(O)cc4CC[C@H]3[C@@H]1CC[C@@H]2O[C@@H]1O[C@H](C(=O)O)[C@@H](O)[C@H](O)[C@H]1O; assay: Drug metabolism in human liver microsomes assessed as CYP2C8-mediated glucuronide conjugate formation per nmol of protein after 30 mins by HPLC-MS/MS analysis; format: ADME

Cc1ccc(C)c(OCCCC(C)(C)C(=O)O)c1 [GEMFIBROZIL]
Drug metabolism [1]: 32 %ID
Drug metabolism [2]: 20 %ID
Drug metabolism [3]: 20 %ID
inhibition (INH) [4]: 50%

O=C(O)Cc1ccccc1Nc1c(Cl)cccc1Cl [DICLOFENAC]
Drug metabolism [5]: 30 %ID
Drug metabolism [6]: 10 to 20 %ID

O=C(O)[C@H]1O[C@@H](OC(=O)[C@H](c2ccccc2Cl)N2CCc3sccc3C2)[C@H](O)[C@@H](O)[C@@H]1O
kinact at 2 min [7]: 0.000783 s⁻¹
Ki [8]: 9.9 µM

CC(C)Cc1ccc(C(C)C(=O)O)cc1 (stereo not given) [IBUPROFEN]
Drug metabolism [9]: 10 to 15 %ID

Cn1c(C2(NC(=O)c3ccc4c(C5CCCC5)c(-c5ncc(Br)cn5)n(C)c4c3)CCC2)nc2ccc(/C=C/C(=O)O)cc21 [DELEOBUVIR]
Drug metabolism [10]: 20 %ID
Drug metabolism [11]: 15 %ID

Cc1ccc(C)c(OCCCC(C)(C)C(=O)O[C@@H]2O[C@H](C(=O)O)[C@@H](O)[C@H](O)[C@H]2O)c1
IC50 [12]: 24 µM
Ki [13]: 52 µM

Cn1c(C2(NC(=O)c3ccc4c(C5CCCC5)c(-c5ncc(Br)cn5)n(C)c4c3)CCC2)nc2ccc(/C=C/C(=O)O[C@@H]3O[C@H](C(=O)O)[C@@H](O)[C@H](O)[C@H]3O)cc21
kinact at 5 min [14]: 0.000868 s⁻¹
Ki [15]: 52.1 nM
Ki [16]: 22 nM
kinact at 5 min [17]: 0.000733 s⁻¹
Ki [18]: 54.6 µM

B1: Cytochrome P450 2C8 (Homo sapiens) (protein)
chain: T1 sequence (P10632 whole entry)
Km [19]: 88 µM
Vmax [19]: 0.00186 µmol/min
